Experimental data from patent publication EP4782445A1, “CDK KINASE INHIBITOR AND USE THEREOF” (Abbisko Therapeutics Co., Ltd., priority 2023, dated 2025).

How the values were obtained:
[1] = biological target: T1, CDK4/cyclin D3 (Homo sapiens, UniProt P11802); assay: In vitro biochemical kinase activity assay for CDK4/cyclin D3 (HTRF)
T1 construct: purchased Carna
Method: II. In Vitro Biochemical Kinase Activity Assay for CDK4/Cyclin D3
The inhibitory effects of the compounds of the present invention on CDK4/cyclin D3 kinase activity were determined using an HTRF assay. The experimental process was as follows: • 1. The kinase reaction was carried out in a 384-well plate. 4.9 nM CDK4/cyclin D3 (Carna), 1 mM (or 80 µM) ATP, and 0.3 µM biotin-labeled substrate protein Rb-biotin (Cisbio) were incubated at 30°C for 90 min in a buffer system composed of 50 mM MgCl2, 1 mM DTT, and basal kinase buffer (Cisbio). • 2. The detection solution (Cisbio, containing reagents that specifically recognize phosphorylated Rb and Rb-biotin proteins, respectively) was added. The plate was then sealed with a film (to protect from light and volatilization) and incubated at 25°C for 60 min. • 3. The plate was transferred to an Envision plate reader to detect FRET signals. (The 665/615 ratio was calculated by reading the emission at 665 nm and 615 nM, respectively.) • 4. The IC50 values were determined by analyzing the inhibition at varying compound concentrations using Model 205 in the XLfit software.

[2] = biological target: T2, CDK6/cyclin D3 (Homo sapiens, UniProt Q00534); assay: In vitro biochemical kinase activity assay for CDK6/cyclin D3 (HTRF)
T2 construct: purchased Carna
T2 sequence (Q00534 whole entry): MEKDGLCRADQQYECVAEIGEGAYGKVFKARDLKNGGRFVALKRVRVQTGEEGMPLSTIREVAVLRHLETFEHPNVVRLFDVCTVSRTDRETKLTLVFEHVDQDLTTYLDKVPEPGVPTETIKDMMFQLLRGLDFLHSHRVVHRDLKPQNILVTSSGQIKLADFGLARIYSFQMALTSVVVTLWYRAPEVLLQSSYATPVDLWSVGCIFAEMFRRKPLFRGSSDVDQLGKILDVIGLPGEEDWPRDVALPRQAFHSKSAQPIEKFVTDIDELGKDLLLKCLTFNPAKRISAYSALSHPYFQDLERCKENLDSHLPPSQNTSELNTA
T2 sequence (P30281 whole entry partner): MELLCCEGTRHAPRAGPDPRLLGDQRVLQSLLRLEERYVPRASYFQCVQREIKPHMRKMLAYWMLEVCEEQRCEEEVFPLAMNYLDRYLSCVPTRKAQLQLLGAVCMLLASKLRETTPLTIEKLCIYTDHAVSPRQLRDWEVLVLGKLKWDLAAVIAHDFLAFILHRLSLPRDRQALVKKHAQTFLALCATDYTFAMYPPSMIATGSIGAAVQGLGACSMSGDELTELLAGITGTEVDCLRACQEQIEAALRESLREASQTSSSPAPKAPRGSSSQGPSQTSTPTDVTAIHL
Method: III. In Vitro Biochemical Kinase Activity Assay for CDK6/Cyclin D3
The inhibitory effects of the compounds of the present invention on CDK6/cyclin D3 kinase activity were determined using an HTRF assay. The experimental process was as follows: 1. The kinase reaction was carried out in a 384-well plate. 0.02 nM CDK6/cyclin D3 (Carna), 1 mM (or 100 µM) ATP, and 0.3 µM biotin-labeled substrate protein Rb-biotin (Cisbio) were incubated at 30°C for 60 min in a buffer system composed of 5 mM MgCl2, 1 mM DTT, and basal kinase buffer (Cisbio). 2. The detection solution (Cisbio, containing reagents that specifically recognize phosphorylated Rb and Rb-biotin proteins, respectively) was added. The plate was then sealed with a film (to protect from light and volatilization) and incubated at 25°C for 60 min. 3. The plate was transferred to an Envision plate reader to detect FRET signals. (The 665/615 ratio was calculated by reading the emission at 665 nm and 615 nM, respectively.) 4. The IC50 values were determined by analyzing the inhibition at varying compound concentrations using Model 205 in the XLfit software.

[3] = unmarked data: 80 µM ATP in Step 1
[4] = unmarked data: 100 µM ATP in Step 1
[5] = data marked with *: 1 mM ATP in Step 1

T1 sequence (P11802 whole entry): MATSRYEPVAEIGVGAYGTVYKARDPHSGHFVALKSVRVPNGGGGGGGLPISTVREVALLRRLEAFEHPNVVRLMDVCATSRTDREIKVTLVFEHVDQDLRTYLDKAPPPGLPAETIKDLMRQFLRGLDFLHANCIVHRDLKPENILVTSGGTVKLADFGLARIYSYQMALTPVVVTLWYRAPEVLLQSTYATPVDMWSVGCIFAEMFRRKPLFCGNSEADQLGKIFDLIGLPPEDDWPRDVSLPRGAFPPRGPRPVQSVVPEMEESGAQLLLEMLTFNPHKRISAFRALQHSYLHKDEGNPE
T1 sequence (P30281 whole entry partner): as the sequence (P30281 whole entry partner) above

| SMILES | IC50 [1, 3] [nM] | IC50 [2, 4] [nM] | IC50 [1, 5] [nM] | IC50 [2, 5] [nM] |
| --- | --- | --- | --- | --- |
| CC(C)n1c(C#Cc2nc(Nc3ccc(N4CCN(C)CC4)cn3)ncc2Cl)cnc1C(C)(C)O [Example 66, 2-(5-((5-chloro-2-((5-(4-methylpiperazin-1-yl)pyridin-2-yl)amino)pyrimidin-4-yl)ethynyl)-1-isopropyl-1H-imidazol-2-yl)propan-2-ol] | 1.03 | 1.9 | – | – |
| CC(C)n1c(C#Cc2nc(N[C@@H]3CCOC[C@H]3O)ncc2Cl)cnc1CN1CCC[C@H](F)C1 [Example 105, (3S,4R)-4-((5-chloro-4-((2-(((S)-3-fluoropiperidin-1-yl)methyl)-1-isopropyl-1H-imidazol-5-yl)ethynyl)pyrimidin-2-yl)amino)tetrahydro-2H-pyran-3-ol] | – | – | 26.4 | 413 |
| CCN1CC2(C1)CN(c1ccc(Nc3ncc(F)c(C#Cc4cnc(C)n4C(C)C)n3)nc1)C2 [Example 81, N-(5-(6-ethyl-2,6-diazaspiro[3.3]heptan-2-yl)pyridin-2-yl)-5-fluoro-4-((1-isopropyl-2-methyl-1H-imidazol-5-yl)ethynyl)pyrimidin-2-amine] | – | – | 9.86 | 59.1 |
| CC(C)n1c(C#Cc2nc(N[C@@H]3CCOC[C@H]3O)ncc2Cl)cnc1[C@H](C)N1CCC[C@H](O)C1 [Example 124, (S)-1-((S)-1-(5-((5-chloro-2-(((3 S,4R)-3-hydroxytetrahydro-2H-pyran-4-yl)amino)pyrimidin-4-yl)ethynyl)-1-isopropyl-1H-imidazol-2-yl)ethyl)piperidin-3-ol] | – | – | 182 | 1160 |
| CC(C)n1c(C#Cc2nc(Nc3ccc(N4CC5(CN(CC(F)F)C5)C4)cn3)ncc2Cl)cnc1CN1CCC[C@H](O)C1 [Example 116, (S)-1-((5-((5-chloro-2-((5-(6-(2,2-difluoroethyl)-2,6-diazaspiro[3.3]heptan-2-yl)pyridin-2-yl)amino)pyrimidin-4-yl)ethynyl)-1-isopropyl-1H-imidazol-2-yl)methyl)piperidin-3-ol] | – | – | 5.7 | 87.8 |
| CC(C)n1c(C#Cc2nc(N[C@@H]3CCOC[C@H]3O)ncc2Cl)cnc1CN1CCCC(C)(O)C1 (stereo partly drawn) [Example 110, 1-((5-((5-chloro-2-(((3 S,4R)-3-hydroxytetrahydro-2H-pyran-4-yl)amino)pyrimidin-4-yl)ethynyl)-1-isopropyl-1H-imidazol-2-yl)methyl)-3-methylpiperidin-3-ol] | – | – | 36.1 | 451 |
| CN(C)c1c(C#Cc2nc(N[C@@H]3CCOC[C@H]3O)ncc2Cl)cnn1C [Example 130, (3 S,4R)-4-((5-chloro-4-((5-(dimethylamino)-1-methyl-1H-pyrazol-4-yl)ethynyl)pyrimidin-2-yl)amino)tetrahydro-2H-pyran-3-ol] | – | – | 23.5 | 222 |
| CC(C)(C)n1cncc1C#Cc1nc(N[C@@H]2CCOC[C@H]2O)ncc1Cl [Example 136, (3S,4R)-4-((4-((1-(tert-butyl)-1H-imidazol-5-yl)ethynyl)-5-chloropyrimidin-2-yl)amino)tetrahydro-2H-pyran-3-ol] | 10.3 | 39.3 | – | – |
| CC(=O)N[C@@H]1COCC[C@H]1Nc1ncc(Cl)c(C#Cc2cnc(C(C)(C)O)n2C(C)C)n1 [Example 87, N-((3 S,4R)-4-((5-chloro-4-((2-(2-hydroxypropan-2-yl)-1-isopropyl-1H-imidazol-5-yl)ethynyl)pyrimidin-2-yl)amino)tetrahydro-2H-pyran-3-yl)acetamide] | – | – | 3970 | 9360 |
| Cn1ncc(C#Cc2nc(N[C@@H]3CCOC[C@H]3O)ncc2Cl)c1C(C)(C)C [Example 127, (3 S,4R)-4-((4-((5-(tert-butyl)-1-methyl-1H-pyrazol-4-yl)ethynyl)-5-chloropyrimidin-2-yl)amino)tetrahydro-2H-pyran-3-ol] | – | – | 137 | 455 |
| CC(C)n1c(C#Cc2nc(Nc3ccc(N4CCN(C)CC4=O)cn3)ncc2Cl)cnc1C(C)(C)O [Example 94, 1-(6-((5-chloro-4-((2-(2-hydroxypropan-2-yl)-1-isopropyl-1H-imidazol-5-yl)ethynyl)pyrimidin-2-yl)amino)pyridin-3-yl)-4-methylpiperazin-2-one] | – | – | 5.53 | 17.6 |
| CCN1CCN(Cc2ccc(Nc3ncc(Cl)c(C#Cc4cnc(CN5CCC[C@H](O)C5)n4C(C)C)n3)nc2)CC1 [Example 107, (S)-1-((5-((5-chloro-2-((5-((4-ethylpiperazin-1-yl)methyl)pyridin-2-yl)amino)pyrimidin-4-yl)ethynyl)-1-isopropyl-1H-imidazol-2-yl)methyl)piperidin-3-ol] | – | – | 8.86 | 116 |
| CCN1CCN(Cc2ccc(Nc3ncc(Cl)c(C#Cc4cnc(C(C)O)n4C(C)C)n3)nc2)CC1 (centres unmarked) [Example 122, 1-(5-((5-chloro-2-((5-((4-ethylpiperazin-1-yl)methyl)pyridin-2-yl)amino)pyrimidin-4-yl)ethynyl)-1-isopropyl-1H-imidazol-2-yl)ethan-1-ol] | – | – | 2.07 | 7.84 |
| CC(C)n1c(C#Cc2nc(N[C@@H]3CCOC[C@H]3O)ncc2Cl)cnc1C1(O)CC1 [Example 121, (3 S,4R)-4-((5-chloro-4-((2-(1-hydroxycyclopropyl)-1-isopropyl-1H-imidazol-5-yl)ethynyl)pyrimidin-2-yl)amino)tetrahydro-2H-pyran-3-ol] | – | – | 9.24 | 75.9 |
| CC(C)n1c(C#Cc2nc(N[C@@H]3CCOC[C@H]3O)ncc2Cl)cnc1CN1[C@H](C)COC[C@@H]1C [Example 72, (3S,4R)-4-((5-chloro-4-((2-(((3R,5S)-3,5-dimethylmorpholino)methyl)-1-isopropyl-1H-imidazol-5-yl)ethynyl)pyrimidin-2-yl)amino)tetrahydro-2H-pyran-3-ol] | – | – | 17 | 263 |
| CCN1CCN(Cc2ccc(Nc3ncc(Cl)c(C#Cc4cnc(C(C)(C)O)n4C(C)C)n3)nc2F)CC1 [Example 84, 2-(5-((5-chloro-2-((5-((4-ethylpiperazin-1-yl)methyl)-6-fluoropyridin-2-yl)amino)pyrimidin-4-yl)ethynyl)-1-isopropyl-1H-imidazol-2-yl)propan-2-ol] | – | – | 7.44 | 48.9 |
| CC(C)n1c(C#Cc2nc(Nc3ccc(C(=O)N4CCCC4)cn3)ncc2Cl)cnc1C(C)(C)O [Example 114, (6-((5-chloro-4-((2-(2-hydroxypropan-2-yl)-1-isopropyl-1H-imidazol-5-yl)ethynyl)pyrimidin-2-yl)amino)pyridin-3-yl)(pyrrolidin-1-yl)methanone] | – | – | 7.99 | 28.4 |
| CCN1CCN(Cc2ccc(Nc3ncc(Cl)c(C#Cc4cnn(C)c4C(C)C)n3)nc2)CC1 [Example 69, 5-Chloro-N-(5-((4-ethylpiperazin-1-yl)methyl)pyridin-2-yl)-4-((5-isopropyl-1-methyl-1H-pyrazol-4-yl)ethynyl)pyrimidin-2-amine] | – | – | 4.71 | 38.4 |
| CC(C)c1c(C#Cc2nc(Nc3ccc(N4CC5(CN(CCF)C5)C4)cn3)ncc2F)cnn1C [Example 82, 5-Fluoro-N-(5-(6-(2-fluoroethyl)-2,6-diazaspiro[3.3]heptan-2-yl)pyridin-2-yl)-4-((5-isopropyl-1-methyl-1H-pyrazol-4-yl)ethynyl)pyrimidin-2-amine] | – | – | 3.25 | 29.5 |
